Laboratory results: ChEMBL document CHEMBL1201862, “PubChem BioAssay data set” (2004)
Calls of active or inactive are those of the source.

Tested on: not listed separately
Experiment: intracellular Trypanosoma cruzi inhibitors in host cells – cell-based, plate reader, cherry-pick samples, set 3, dose response (AID 651818);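 note: compounds incubated with infected cells for about four days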
Type: functional
Conditions: not given

| Structure (SMILES) | AC50 |
| --- | --- |
| C[C@H]1CN([C@@H](C)CO)C(=O)c2cc(NC(=O)Nc3ccc(C(F)(F)F)cc3)ccc2O[C@@H]1CN(C)Cc1ccc2c(c1)OCO2 | 4.02 µM (active) |

Molecular target: Cytochrome P450 2C9 (Homo sapiens, UniProt P11712)
Experiment: not given
Conditions: not given

Sequence of Cytochrome P450 2C9 (P11712 whole entry): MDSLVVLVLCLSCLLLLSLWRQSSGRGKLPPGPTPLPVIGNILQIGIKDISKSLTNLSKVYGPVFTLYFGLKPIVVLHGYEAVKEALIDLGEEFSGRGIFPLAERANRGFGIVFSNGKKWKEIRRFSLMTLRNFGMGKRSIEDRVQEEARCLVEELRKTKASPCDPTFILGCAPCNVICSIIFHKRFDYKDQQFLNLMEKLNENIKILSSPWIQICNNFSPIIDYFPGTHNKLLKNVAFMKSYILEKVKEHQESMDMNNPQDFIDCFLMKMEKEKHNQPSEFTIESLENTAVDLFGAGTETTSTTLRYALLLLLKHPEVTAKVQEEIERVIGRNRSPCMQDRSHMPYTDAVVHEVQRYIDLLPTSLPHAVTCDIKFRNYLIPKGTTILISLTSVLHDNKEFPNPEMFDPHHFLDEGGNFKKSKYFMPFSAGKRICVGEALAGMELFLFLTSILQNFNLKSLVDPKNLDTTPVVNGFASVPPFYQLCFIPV

| Structure (SMILES) | AC50 |
| --- | --- |
| O=C(O)CCCC[C@H]1CCSS1 | inconclusive |
| COc1ccc(Br)cc1/C=C/C(=O)Nc1c(C)cccc1C | inconclusive |
| N#C/C(=C\c1c[nH]nc1-c1ccccc1)C(=O)NC1CCCCCC1 | inconclusive |
| CCN(CC)S(=O)(=O)c1cc(C(=O)OC)ccc1Cl | inconclusive |
| O=C1OCc2cccc3cccc1c23 | inconclusive |
| CC(C)(C)C(=O)NNC(=O)CCCOc1ccc(Cl)cc1Cl | inconclusive |
| Cc1c(C(=O)Nc2ccc(OCc3ccccc3)cc2)cccc1[N+](=O)[O-] | inconclusive |
| Cc1[nH]c(=O)c(C(=O)/C=C/c2ccccc2F)c2c1CCCC2 | inconclusive |
| COC(=O)c1cccc(NC(=O)/C=C/c2cccc([N+](=O)[O-])c2)c1 | inconclusive |

Molecular target: Cytochrome P450 2C19 (Homo sapiens, UniProt P33261)
Experiment: Cytochrome panel assay with activity outcomes. Panel member name: p450-cyp2c19 Compounds with AC50 equal or less than 10 uM are considered active
Type: functional
Conditions: read-out: AC50

Sequence of Cytochrome P450 2C19 (P33261 whole entry): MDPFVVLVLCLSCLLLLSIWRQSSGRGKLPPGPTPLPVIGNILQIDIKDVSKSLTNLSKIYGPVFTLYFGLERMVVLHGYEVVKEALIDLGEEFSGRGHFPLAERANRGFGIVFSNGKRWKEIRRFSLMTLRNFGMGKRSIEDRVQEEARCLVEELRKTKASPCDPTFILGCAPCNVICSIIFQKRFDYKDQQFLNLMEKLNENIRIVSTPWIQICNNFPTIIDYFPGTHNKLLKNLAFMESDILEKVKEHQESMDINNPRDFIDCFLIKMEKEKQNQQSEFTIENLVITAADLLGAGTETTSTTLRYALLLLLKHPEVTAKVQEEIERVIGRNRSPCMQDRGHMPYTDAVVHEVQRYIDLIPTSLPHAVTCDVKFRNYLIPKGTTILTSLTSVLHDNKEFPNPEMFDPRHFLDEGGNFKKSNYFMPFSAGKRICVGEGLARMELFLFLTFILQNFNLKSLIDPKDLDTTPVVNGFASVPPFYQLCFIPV

| Structure (SMILES) | AC50 |
| --- | --- |
| O=C1OCc2cccc3cccc1c23 | 39.8 µM (inconclusive) |
| COC(=O)c1cccc(NC(=O)/C=C/c2cccc([N+](=O)[O-])c2)c1 | 5.01 µM (inconclusive) |

Tested on: Vero
Experiment: cells
Type: functional
Conditions: Chlorocebus sabaeus

| Structure (SMILES) | CC50 |
| --- | --- |
| COc1cccc(C2=CC(c3cc(OC)ccc3OC)n3nnnc3N2)c1 (stereo not drawn) | 14.4 µM (active) |
| CCOC(=O)c1c(NC(=O)CSc2c[nH]c3ccccc23)sc2c1CCCC2 | > 25 µM (active) |
| C=CCN1C(=O)/C(=C/c2ccc3c(c2)CCCN3CCC)C(=O)NC1=S | 18.3 µM (active) |
| C=CC[C@@H](CC(=O)N(CCO)Cc1ccccc1)C(=O)N[C@@H](COC(=O)[C@@H](CC=C)Cc1ccc(F)cc1)Cc1c[nH]c2ccccc12 | 18 µM (active) |

Molecular target: T1, Cytochrome P450 1A2 (Homo sapiens, UniProt P05177);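 note: PubChem cytochrome P450 panel assay, CYP1A2 panel member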
T1 sequence (P05177 whole entry): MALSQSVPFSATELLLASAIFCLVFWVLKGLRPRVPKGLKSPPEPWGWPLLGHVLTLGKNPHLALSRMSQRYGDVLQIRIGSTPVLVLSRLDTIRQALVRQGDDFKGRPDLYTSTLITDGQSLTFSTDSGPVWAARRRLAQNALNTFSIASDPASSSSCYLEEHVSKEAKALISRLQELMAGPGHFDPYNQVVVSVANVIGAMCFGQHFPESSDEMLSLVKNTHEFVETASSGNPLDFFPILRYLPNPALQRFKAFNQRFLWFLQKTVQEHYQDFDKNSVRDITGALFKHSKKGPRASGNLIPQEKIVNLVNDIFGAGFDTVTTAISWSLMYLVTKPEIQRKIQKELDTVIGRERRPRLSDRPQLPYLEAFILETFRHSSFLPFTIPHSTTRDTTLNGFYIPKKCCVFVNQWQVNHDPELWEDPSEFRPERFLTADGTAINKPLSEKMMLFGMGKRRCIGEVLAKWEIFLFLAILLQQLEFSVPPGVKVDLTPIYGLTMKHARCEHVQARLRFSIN
Experiment: not given
Conditions: not given

| Structure (SMILES) | AC50 |
| --- | --- |
| COc1ccc(Br)cc1/C=C/C(=O)Nc1c(C)cccc1C | 22.4 µM (inconclusive) |
| CC(C)(C)C(=O)NNC(=O)CCCOc1ccc(Cl)cc1Cl | 25.1 µM (inconclusive) |
| COC(=O)c1cccc(NC(=O)/C=C/c2cccc([N+](=O)[O-])c2)c1 | 2.24 µM (inconclusive) |

Molecular target: T2, Caspase-6 (Homo sapiens, UniProt P55212)
T2 sequence (P55212 whole entry): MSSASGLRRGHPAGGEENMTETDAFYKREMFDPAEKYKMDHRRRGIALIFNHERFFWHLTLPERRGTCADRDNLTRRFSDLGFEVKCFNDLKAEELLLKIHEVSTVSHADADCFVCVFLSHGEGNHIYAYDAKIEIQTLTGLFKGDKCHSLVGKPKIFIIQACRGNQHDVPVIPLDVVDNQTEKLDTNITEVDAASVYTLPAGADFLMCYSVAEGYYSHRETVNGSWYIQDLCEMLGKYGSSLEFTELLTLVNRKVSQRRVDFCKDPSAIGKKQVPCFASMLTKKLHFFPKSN
Experiment: human caspase-6 inhibitors, dose response, biochemical, VEID-R110 fluorescence, cherry-pick (AID 720632)
Conditions: not given

| Structure (SMILES) | AC50 |
| --- | --- |
| CC(=O)N(C)c1ccc(NC(=O)Cc2cccs2)cc1 | 31.8 µM (active) |
| CSc1ccccc1NC(=O)CN(C)C(=O)COc1cccc2cccnc12 | 29.5 µM (active) |
| O=C(O)C/C(=C\c1cc(Cl)c2c(c1)OCO2)c1nc2ccccc2s1 | 7.56 µM (active) |
| CN(C)c1ccc2c(c1)[C@@H]1C[C@@H](CC(=O)N3CCOCC3)O[C@@H](CO)[C@@H]1O2 | 42.4 µM (active) |
